The values below come from ChEMBL document CHEMBL5104193, “Hypoxia-Activated Prodrugs with Dual COX-2/CA Inhibitory Effects on Attenuating Cardiac Inflammation under Hypoxia” (J Med Chem, 2022).

Data set [1] can be described thus: Toxicity in Wistar rat assessed as change in CRE level in presence of 2-(4-(5-oxo-5-((5-sulfamoyl-1,3,4-thiadiazol-2-yl)amino)pentyl)-1H-1,2,3-triazol-1-yl)acetic acid. The conditions noted are these: in vivo.
Data set [2] deals with H9c2. The data set can be described thus: Anti-inflammatory activity in LPS/hypoxia induced rat H9c2 cells assessed as reduction of IL-1 beta protein expression at 10 uM by Western blot analysis. The data set is classed as functional, cell-based. (Immunoblotting shows a protein as a band on a membrane.)
Data set [3] has as its system H9c2. In words: Protection against LPS/ hypoxia induced cell injury in rat H9c2 cells assessed as recovery of cell viability at 1 to 10 uM by CCK-8 assay. The class given is functional, cell-based. To be noted: dose 1-10 µM.
The subject of data set [4] is Rattus norvegicus. The data set can be described thus: Antiinflammatory activity in LPS/talc powder induced pericarditic Wistar rat model assessed as increase in CK-MB level in serum at 20 mg/kg, ip pretreated for 2 hrs followed by LPS/tal powder stimulation measured after 48 hrs in presence of 2-(4-(5-oxo-5-((5-sulfamoyl-1,3,4-thiadiazol-2-yl)amino)pentyl)-1H-1,2,3-triazol-1-yl)acetic acid (reference value: 4140+/-256.23 U/L). The data set is classed as functional. The conditions noted are these: time 50 hrs.

Data set [5] relates to Rattus norvegicus. In words: Antiinflammatory activity against LPS/talc powder induced pericarditic Wistar rat assessed as reduction in U wave flattening at 20 mg/kg, ip pretreated for 2 hrs followed by LPS/tal powder stimulation measured after 48 hrs in presence of 2-(4-(5-oxo-5-((5-sulfamoyl-1,3,4-thiadiazol-2-yl)amino)pentyl)-1H-1,2,3-triazol-1-yl)acetic acid by ECG analysis. The data set is classed as functional, organism-based. To be noted: time 50.0 hrs.

For data set [6], the system named is H9c2. The data set can be described thus: Inhibition of intracellular ROS level in LPS/hypoxia induced rat H9c2 cells in presence of 2-(4-(5-oxo-5-((5-sulfamoyl-1,3,4-thiadiazol-2-yl)amino)pentyl)-1H-1,2,3-triazol-1-yl)acetic acid and Na2WO4 by DCFH-DA probe based fluorescence confocal microscopy analysis. The class given is functional, cell-based.
The test system of data set [7] is H9c2. The data set can be described thus: Antiinflammatory activity in LPS/hypoxia induced CA9 knockdown rat H9c2 cells assessed as decrease in IL-1 beta protein level at 10 uM by Western blot analysis. The class given is functional, cell-based.
The test system of data set [8] is H9c2. In words: Protection against LPS/hypoxia induced cell injury in CA9 knockdown rat H9c2 cells assessed as recovery of cell viability at 10 uM by CCK-8 assay. The data set is classed as functional, cell-based. (In general: Tetrazolium assays rely on reduction of a dye to a coloured formazan, in cell work by metabolically active cells.)
In data set [9] the test system is H9c2. In words: Anti-inflammatory activity in LPS/hypoxia induced rat H9c2 cells assessed as reduction of TNF-alpha protein expression at 10 uM in presence of 2-(4-(5-oxo-5-((5-sulfamoyl-1,3,4-thiadiazol-2-yl)amino)pentyl)-1H-1,2,3-triazol-1-yl)acetic acid by Western blot analysis. The class given is functional, cell-based.
The subject of data set [10] is H9c2. The data set can be described thus: Anti-inflammatory activity in LPS/hypoxia induced rat H9c2 cells assessed as increase in VEGF expression at 10 uM in presence of 2-(4-(5-oxo-5-((5-sulfamoyl-1,3,4-thiadiazol-2-yl)amino)pentyl)-1H-1,2,3-triazol-1-yl)acetic acid by Western blot analysis. The data set is classed as functional, cell-based.
The test system of data set [11] is H9c2. The data set can be described thus: Reversal of LPS/hypoxia induced mitochondrial membrane potential loss in rat H9c2 cells assessed as increase in JC-1 polymer morphology in presence of 2-(4-(5-oxo-5-((5-sulfamoyl-1,3,4-thiadiazol-2-yl)amino)pentyl)-1H-1,2,3-triazol-1-yl)acetic acid by JC-1 dye based flow cytometry analysis. The conditions noted are these: time 20.0 min. The data set is classed as functional, cell-based.

The test system of data set [12] is H9c2. The data set can be described thus: Reversal of ATP level in LPS/hypoxia induced rat H9c2 cell in presence of 2-(4-(5-oxo-5-((5-sulfamoyl-1,3,4-thiadiazol-2-yl)amino)pentyl)-1H-1,2,3-triazol-1-yl)acetic acid and Na2WO4 by multimode plate reader analysis. The class given is functional, cell-based.
For data set [13], the system named is H9c2. In words: Anti-inflammatory activity in LPS/hypoxia induced rat H9c2 cells assessed as reduction of IL-1beta protein expression at 10 uM in presence of 2-(4-(5-oxo-5-((5-sulfamoyl-1,3,4-thiadiazol-2-yl)amino)pentyl)-1H-1,2,3-triazol-1-yl)acetic acid by Western blot analysis. The class given is functional, cell-based.

The source made the active and inactive calls. No cut-off for these calls is given here.

With `COc1ccc2c(c1)c(CC(=O)O)c(C)n2C(=O)c1ccc(Cl)cc1` [INDOMETHACIN], the Activity entry in data set [1] is “Toxic”; in data set [4], 2620 U/L. Besides, the outcome in data set [2], in [3], in data set [5], in data set [7], in data set [8] and in [9] was Active. In addition, the outcome in data set [10], in data set [11], in data set [12] and in data set [13] was Active. Moreover, in data set [6], the inhibition entry is “Active”.
